Experimental data reported in publication PMC9116648, “Synthesis and biological evaluation of thiazolidine-2-thione derivatives as novel xanthine oxidase inhibitors” (PLoS ONE, 2022).
Entries after “also recorded” stand apart in the source; their conditions may differ. Read-outs that look alike come from different tables or passages of the source.

Columns and labels:
Xanthine oxidase (XO) [1] = target: T1, Xanthine oxidase (XO) (Homo sapiens, UniProt P47989); experiment: In vitro XO inhibitory potency (enzyme catalysis reaction, OD 295 nm); format: biochemical
Experimental: XO inhibitory activity was measured by enzyme catalysis reaction in vitro, with modifications. The XO solution (100 U/L) and xanthine solution (0.5 mmol/L) were prepared in PBS (10 mmol/L, pH = 7.4) and stored at 4°C. The test compounds were diluted to different concentrations with PBS. The enzyme catalysis reaction was performed in 96-well plates.

Xanthine oxidase (XO) [2] = target: T1, Xanthine oxidase (XO); details: literature statement; cited from earlier work
Xanthine oxidase (XO) [3] = target: T1, Xanthine oxidase (XO); experiment: Enzyme inhibitory kinetics (Lineweaver-Burk plots); format: biochemical
Experimental: The inhibitory mode of representative compound 6k was further investigated using enzyme inhibitory kinetic studies. XO solution (55 U/L) was mixed respectively with compound 6k (0, 5, 10, and 20 μmol/L) and incubated at 37°C for 5 min. Then, xanthine solution (0.25, 0.5, 1.0, and 2.0 mmol/L) were added to initiate the reaction at 37°C for 30 min. The reaction was carried out in a 96-well plate and the OD value were read using a microplate reader at 295 nm. The obtained data were analyzed using Microsoft Excel 2013 and transformed into Lineweaver-Burk plots using GraphPad Prism 7.0. In addition, the value of Ki and Kis could be calculated using GraphPad Prism 7.0.

[4] = S1 Table, mean of three determinations, unit inferred, read-out: IC50 mean
[5] = S1 Table, single determination 1 of 3, unit inferred, read-out: IC50 (first replicate column)
[6] = S1 Table, single determination 2 of 3, unit inferred, read-out: IC50 (second replicate column)
[7] = S1 Table, single determination 3 of 3, unit inferred, read-out: IC50 (third replicate column)
[8] = mean±SD, tested in triplicate, xanthine substrate, 37°C, PBS pH 7.4, read-out: IC50

T1 sequence (P47989 whole entry, species assumed): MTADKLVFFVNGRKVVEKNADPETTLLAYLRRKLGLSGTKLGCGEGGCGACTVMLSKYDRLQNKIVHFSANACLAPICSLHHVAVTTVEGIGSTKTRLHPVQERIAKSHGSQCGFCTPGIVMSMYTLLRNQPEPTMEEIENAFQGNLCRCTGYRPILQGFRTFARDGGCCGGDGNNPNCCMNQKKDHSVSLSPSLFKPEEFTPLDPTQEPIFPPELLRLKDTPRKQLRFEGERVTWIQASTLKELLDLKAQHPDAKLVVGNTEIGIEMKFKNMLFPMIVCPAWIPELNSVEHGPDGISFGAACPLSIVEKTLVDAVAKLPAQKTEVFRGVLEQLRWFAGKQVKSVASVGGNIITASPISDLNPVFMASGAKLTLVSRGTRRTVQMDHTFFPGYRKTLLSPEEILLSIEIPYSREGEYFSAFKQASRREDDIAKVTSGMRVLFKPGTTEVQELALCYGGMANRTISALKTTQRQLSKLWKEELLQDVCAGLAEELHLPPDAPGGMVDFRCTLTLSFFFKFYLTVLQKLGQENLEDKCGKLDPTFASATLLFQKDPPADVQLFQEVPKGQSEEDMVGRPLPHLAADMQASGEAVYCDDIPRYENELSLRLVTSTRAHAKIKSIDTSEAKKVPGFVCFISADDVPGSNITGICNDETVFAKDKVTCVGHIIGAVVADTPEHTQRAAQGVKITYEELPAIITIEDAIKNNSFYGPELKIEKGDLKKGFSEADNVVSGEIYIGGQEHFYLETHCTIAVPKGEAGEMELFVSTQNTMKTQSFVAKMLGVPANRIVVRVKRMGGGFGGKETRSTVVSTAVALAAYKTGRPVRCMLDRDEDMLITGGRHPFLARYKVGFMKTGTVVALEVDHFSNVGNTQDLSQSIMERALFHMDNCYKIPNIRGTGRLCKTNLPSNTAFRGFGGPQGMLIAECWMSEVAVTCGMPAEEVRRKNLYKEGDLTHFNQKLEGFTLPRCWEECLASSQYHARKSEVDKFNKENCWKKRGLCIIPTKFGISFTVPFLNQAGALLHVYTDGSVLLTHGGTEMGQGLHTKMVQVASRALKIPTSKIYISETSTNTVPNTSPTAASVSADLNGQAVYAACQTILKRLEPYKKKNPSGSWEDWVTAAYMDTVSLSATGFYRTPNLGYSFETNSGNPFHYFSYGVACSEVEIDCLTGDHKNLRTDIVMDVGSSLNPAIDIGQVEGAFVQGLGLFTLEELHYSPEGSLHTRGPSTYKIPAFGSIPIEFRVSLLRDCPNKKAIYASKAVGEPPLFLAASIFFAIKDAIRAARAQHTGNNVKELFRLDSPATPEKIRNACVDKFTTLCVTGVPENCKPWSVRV

| SMILES | IC50 (Xanthine oxidase (XO) [1]; [4]) [µM] | IC50 (Xanthine oxidase (XO) [1]; [5]) [µM] | IC50 (Xanthine oxidase (XO) [1]; [6]) [µM] | IC50 (Xanthine oxidase (XO) [1]; [7]) [µM] | IC50 (Xanthine oxidase (XO) [1]; [8]) [µM] | melting point [°C] | other results |
| --- | --- | --- | --- | --- | --- | --- | --- |
| Cc1nc(-c2ccc(OCC(C)C)c(C#N)c2)sc1C(=O)O [Febuxostat, reference compound] |  |  |  |  |  |  | IC50 (Xanthine oxidase (XO) [1]; IC50 (first replicate column), S1 Table, single determination 1 of 3, unit inferred): 3.02 µM; IC50 (Xanthine oxidase (XO) [1]; IC50 (second replicate column), S1 Table, single determination 2 of 3, unit inferred): 2.91 µM; IC50 (Xanthine oxidase (XO) [1]; IC50 (third replicate column), S1 Table, single determination 3 of 3, unit inferred): 4.08 µM; IC50 (Xanthine oxidase (XO) [1]; IC50, mean±SD, tested in triplicate, xanthine substrate, 37°C, PBS pH 7.4): 3.34 ± 0.53 µM; IC50 (Xanthine oxidase (XO) [1]; IC50 mean, S1 Table, mean of three determinations, unit inferred): 3.34 µM |
| S=C1SCCN1c1ccccc1 [Compound 4c, 3-phenyl-thiazolidine-2-thione] | 51.6 | 49.4 | 52.2 | 53.3 | 51.6 ± 1.64 |  |  |
| Oc1ncnc2[nH]ncc12 [Allopurinol] |  |  |  |  |  |  | Mode of XO inhibition (Xanthine oxidase (XO) [2]): competitive inhibition |
| SC1=NCCS1 [Compound 3, thiazolidine-2-thione] | 72.2 | 74.1 | 72.3 | 70.1 | 72.2 ± 1.66 |  |  |
| CCN1CCSC1=S [Compound 4a, 3-ethyl-thiazolidine-2-thione] | 43.5 | 43.4 | 40.9 | 46.3 | 43.5 ± 2.18 |  |  |
| CCCN1CCSC1=S [Compound 4b, 3-propyl-thiazolidine-2-thione] | 58.2 | 50.5 | 57.2 | 66.8 | 58.2 ± 6.71 |  |  |
| O=C(NS(=O)(=O)c1ccc(F)cc1)N1CCSC1=S [Compound 6k, N-((4-fluorophenyl)sulfonyl)-2-thioxothiazolidine-3-carboxamide] | 3.56 | 3.19 | 4.42 | 3.06 | 3.56 ± 0.61 |  | Mode of XO inhibition (Xanthine oxidase (XO) [3]; Lineweaver-Burk plots): mixed-type XO inhibition; also recorded: mixed competitive inhibition; also recorded: mixed-type XO inhibitor; Intercept of Lineweaver-Burk plot (Xanthine oxidase (XO) [3]; compound 6k 5 µmol/L): 1.487; Slope of Lineweaver-Burk plot (Xanthine oxidase (XO) [3]; compound 6k 5 µmol/L): 3.559; Intercept of Lineweaver-Burk plot (Xanthine oxidase (XO) [3]; compound 6k 10 µmol/L): 2.126; Slope of Lineweaver-Burk plot (Xanthine oxidase (XO) [3]; compound 6k 10 µmol/L): 4.587; Intercept of Lineweaver-Burk plot (Xanthine oxidase (XO) [3]; compound 6k 20 µmol/L): 2.357; Slope of Lineweaver-Burk plot (Xanthine oxidase (XO) [3]; compound 6k 20 µmol/L): 6.098; Ki (Xanthine oxidase (XO) [3]; from secondary plot of Lineweaver-Burk slopes, XO 55 U/L): 7.08 µM; XO inhibitory potency relative to allopurinol (fold more potent) (Xanthine oxidase (XO) [1]; ratio of IC50 values vs allopurinol): approximately 2.5 fold |
| S=C1SCCN1Cc1ccccc1 [Compound 4d, 3-benzyl-thiazolidine-2-thione] | 114 | 122 | 109 | 110 | > 100 | 115 to 117 |  |

Second part, led by results:

| IC50 (Xanthine oxidase (XO) [1]; [4]) [µM] | IC50 (Xanthine oxidase (XO) [1]; [5]) [µM] | IC50 (Xanthine oxidase (XO) [1]; [6]) [µM] | IC50 (Xanthine oxidase (XO) [1]; [7]) [µM] | IC50 (Xanthine oxidase (XO) [1]; [8]) [µM] | melting point [°C] | SMILES | other results |
| --- | --- | --- | --- | --- | --- | --- | --- |
| 22.9 | 19.9 | 23.5 | 25.3 | 22.9 ± 2.24 |  | CCNC(=O)N1CCSC1=S [Compound 6a, N-ethyl-2-thioxothiazolidine-3-carboxamide] |  |
| 5.19 | 5.19 | 4.02 | 6.35 | 5.19 ± 0.95 | 121 to 123 | O=C(NS(=O)(=O)c1ccccc1)N1CCSC1=S [Compound 6i, N-(phenylsulfonyl)-2-thioxothiazolidine-3-carboxamide] |  |
| 27.8 | 27.2 | 27.6 | 28.6 | 27.8 ± 0.63 |  | CCCNC(=O)N1CCSC1=S [Compound 6b, N-propyl-2-thioxothiazolidine-3-carboxamide] |  |
| 9.76 | 11.5 | 8.48 | 9.27 | 9.76 ± 1.29 | 127 to 129 | Cc1ccc(S(=O)(=O)NC(=O)N2CCSC2=S)cc1 [Compound 6j, N-((4-methylphenyl)sulfonyl)-2-thioxothiazolidine-3-carboxamide] |  |
| 19 | 21 | 17.7 | 18.4 | 19 ± 1.44 |  | CC(C)CNC(=O)N1CCSC1=S [Compound 6d, N-isobutyl-2-thioxothiazolidine-3-carboxamide] |  |
| 9.87 | 8.25 | 11.1 | 10.3 | 9.87 ± 1.19 | 114 to 115 | O=C(NC1CCCCC1)N1CCSC1=S [Compound 6h, N-cyclohexyl-2-thioxothiazolidine-3-carboxamide] |  |
| 10.2 | 10.6 | 8.38 | 11.7 | 10.2 ± 1.37 | 101 to 102 | O=C(Nc1ccccc1)N1CCSC1=S [Compound 6e, N-phenyl-2-thioxothiazolidine-3-carboxamide] |  |
| 14.5 | 17.7 | 15.1 | 10.7 | 14.5 ± 2.9 | 111 to 113 | O=C(Nc1cccnc1)N1CCSC1=S [Compound 6g, N-(pyridin-3-yl)-2-thioxothiazolidine-3-carboxamide] |  |
| 12.8 | 12.8 | 14.8 | 10.8 | 12.8 ± 1.6 | 107 to 109 | O=C(NCc1ccccc1)N1CCSC1=S [Compound 6f, N-benzyl-2-thioxothiazolidine-3-carboxamide] |  |
| 30.5 | 30.1 | 33.5 | 28 | 30.5 ± 2.25 |  | CCCCNC(=O)N1CCSC1=S [Compound 6c, N-butyl-2-thioxothiazolidine-3-carboxamide] |  |
